Measured values: patent US20240026461A1, “BCL10 MUTATIONS AS BIOMARKERS FOR TARGETED THERAPY IN B CELL LYMPHOMAS” (priority 2022, published 2024)

How the values were obtained:
[1] = tested on: IL-10 secretion by OCI-Ly3 ABC-DLBCL cells; test: IL-10 secretion assay using OCI-Ly3 cells (MSD); assay type: cell-based; settings: Homo sapiens, 24 h, read-out: IC50, IL10 secretion
Experimental: (§1) FIG. 21A. Chemical structure of JNJ-67690246. FIG. 21B. IC50 values for JNJ-67690246 in biochemical enzymatic and cellular cytokine secretion assays. MALT1 proteolytic IC50: purified recombinant MALT1 was preincubated for 50 min at RT with JNJ-67690246, substrate Ac-LRSR-AMC was then incubated for 4 h. MALT1 proteolytic activity was determined by measuring the increase of AMC fluorescence. […] FIG. 21C. Table for IC50 values of three different MALT1 inhibitors measured in HBL1 and OCI-Ly10 cells expressing WT and mutant BCL10. D-F. MALT1 activity measured in OCI-Ly10 GloSensor reporter cells treated with MALT1 inhibitors. OCI-Ly10 MALT1 GloSensor cells were stably expressing wildtype and mutant BCL10, then treated with MALT1 inhibitors of different range (10-0.3 uM). FIG. 21G-I. NF-κB activity measured in NF-κB-RE-luciferase reporter cell lines treated with MALT1 inhibitors. HBL1 NF-κB reporter cells lines were stably expressing wildtype and mutant BCL10, and then treated with MALT1 inhibitors of different range (10-0.3 uM). NF-xB activity was performed 24 h after treatment. Error bars indicate SEM with 4 biological replicates. p<0.05; “p<0.01; “<0.001; ****p<0.0001; ns, not significant.
(§2) Secretion of the IL-6 and IL-10 cytokines by OCI-Ly3 ABC-DLBCL cells was measured using a Mesoscale assay (MSD). MALT1 inhibition results in a decrease of IL-6/10 secretion. […] Plates were read on a SECTOR imager.

OCI-LY10^R58Q = test: Growth inhibition assay (CellTiter Glo), OCI-Ly10 cells expressing BCL10 R58Q; assay type: cell-based; settings: Homo sapiens, 96 h, read-out: IC50, growth inhibition, MALT1 inhibitors
Experimental: (§3) DLBCL cell lines were cultured in exponential condition and the cell growth was determined by CellTiter Glo (Promega). 3000-5000 cells were seeded and cultured in each well of 384 well plate for 96 h and treated with compounds every 48 h. Luminescence was read at the endpoint with the Synergy NEO microplate reader (BioTek). The value of compound treated cells was normalized to their vehicle treated controls and then used to calculate IC50 in GraphPad Prism (RRID:SCR_002798).
(§4) Given the distinct functional profiles, CARD11 dependencies, and MALT1 activation effects of the BCL10 CARD and truncation mutants, the inventors designed experiments to evaluate whether, and to what extent, these mutant BCL10 proteins might confer BTK inhibitor resistance. Isogenic ABC-DLBCL cells expressing BCL10WT, BCL10^R58Q and BCL10^E140X proteins were treated with escalating doses of three chemically distinct covalent BTK inhibitors: ibrutinib, acalabrutinib, or zanubrutinib. The cellular proliferation rates of the treated cells were measured using an ATP fluorescence assay after 96 hours of drug exposure.
(§5) Isogenic BCL10^WT, BCL10^R58Q and BCL10^E140X ABC-DLBCLs were exposed to increasing concentrations of each of these compounds for 96 hours.

[2] = tested on: IL-6 secretion by OCI-Ly3 ABC-DLBCL cells; test: IL-6 secretion assay using OCI-Ly3 cells (MSD); assay type: cell-based; settings: Homo sapiens, 24 h, read-out: IC50, IL6 secretion
Experimental: as §1, §2

HBL1^R58Q = test: Growth inhibition assay (CellTiter Glo), HBL1 cells expressing BCL10 R58Q; assay type: cell-based; settings: Homo sapiens, 96 h, read-out: IC50, growth inhibition, MALT1 inhibitors
Experimental: as §3, §4, §5

[3] = tested on: isogenic ABC-DLBCL cells expressing BCL10^WT, BCL10^R58Q and BCL10^E140X; test: Growth inhibition of isogenic ABC-DLBCL cells, response described in words; assay type: cell-based, human; settings: 96 hours
Experimental: as §3, §4, §5

IC50 [1]: 60 nM | IC50 (OCI-LY10^R58Q): 780 ± 200 nM | IC50 [2]: 60 nM
SMILES: Cc1nc(-n2nccn2)c(Cl)cc1NC(=O)c1cnn(-c2cccc3c(=O)[nH]ccc23)c1C(F)(F)F [JNJ-67690246]
IC50 (HBL1^R58Q): 5770 ± 3020 nM | growth response in words ([3]; BCL10^R58Q ABC-DLBCL cells): generally sensitive | growth response in words ([3]; BCL10^WT ABC-DLBCL cells): generally sensitive
